# According to ChEMBL document CHEMBL1129218, “Bisbenzamidine isoxazoline derivatives as factor Xa inhibitors” (Bioorg Med Chem Lett, 1997):
# Tests used:
# [1] = molecular target: Coagulation factor X (Homo sapiens, UniProt P00742); test: Inhibition of Factor Xa
# [2] = molecular target: Prothrombin (Homo sapiens, UniProt P00734); test: The compound was evaluated for inhibitory activity against Thrombin
# [3] = molecular target: Serine protease 1 (Homo sapiens, UniProt P07477); test: The compound was evaluated for inhibitory activity against Trypsin
# [4] = organism: Rattus norvegicus; test: Compound was tested for inhibitory dose which produced 50% inhibition of thrombus formation in a rat vena cava thrombosis model; format: functional
# [5] = test system: Rattus norvegicus; test: Percent inhibition for thrombus formation after intravenous infusion at 1 mg/kg/h in a rat vena cava thrombosis model; format: functional
# [6] = test system: Rattus norvegicus; test: Percent inhibition for thrombus formation after intravenous infusion at 5 mg/kg/h in a rat vena cava thrombosis model; format: functional
# Sequence of Serine protease 1 (P07477 whole entry): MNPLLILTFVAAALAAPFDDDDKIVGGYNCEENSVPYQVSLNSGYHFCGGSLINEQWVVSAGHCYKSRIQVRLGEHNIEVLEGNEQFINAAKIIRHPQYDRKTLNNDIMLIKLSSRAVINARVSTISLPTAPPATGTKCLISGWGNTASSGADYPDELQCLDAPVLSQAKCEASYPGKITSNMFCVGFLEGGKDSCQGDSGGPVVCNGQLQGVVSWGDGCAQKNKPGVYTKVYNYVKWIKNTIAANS
# Sequence of Coagulation factor X (P00742 41-179 limits assumed): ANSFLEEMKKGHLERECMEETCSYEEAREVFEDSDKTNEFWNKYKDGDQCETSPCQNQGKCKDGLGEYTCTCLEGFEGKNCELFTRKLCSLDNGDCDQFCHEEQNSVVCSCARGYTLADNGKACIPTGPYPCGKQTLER
# Sequence of Coagulation factor X (P00742 235-488 limits assumed): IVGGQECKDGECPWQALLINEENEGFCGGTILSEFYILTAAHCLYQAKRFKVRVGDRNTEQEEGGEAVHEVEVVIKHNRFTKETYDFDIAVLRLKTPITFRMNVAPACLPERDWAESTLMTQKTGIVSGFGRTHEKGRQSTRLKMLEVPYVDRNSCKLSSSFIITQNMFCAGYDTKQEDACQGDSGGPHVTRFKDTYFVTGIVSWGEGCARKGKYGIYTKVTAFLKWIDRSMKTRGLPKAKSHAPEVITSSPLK
Structure (SMILES),Ki [1],Ki [2],Ki [3],ID50 [4],inhibition in vivo at 1 mg/kg/h [5],inhibition in vivo at 5 mg/kg/h [6]
N=C(N)c1ccc(NC(=O)CC2CC(c3ccc(C(=N)N)cc3)=NO2)cc1 (stereo unspecified),1.7 µM,2.2 µM,–,–,–,–
N=C(N)c1ccc(NC(=O)CC2CC(c3cccc(C(=N)N)c3)=NO2)cc1 (stereo unspecified),1.4 µM,11.1 µM,–,–,–,–
N=C(N)c1cccc(NC(=O)CC2CC(c3cccc(C(=N)N)c3)=NO2)c1 (stereo unspecified),1.8 µM,11.2 µM,> 1.2 µM,–,–,–
N=C(N)c1ccc(C2=NOC(CC(=O)Nc3cccc(C(=N)N)c3)C2)cc1 (stereo unspecified),0.87 µM,2.2 µM,0.51 µM,–,–,–
N=C(N)c1ccc(NC(=O)C2CC(c3cccc(C(=N)N)c3)=NO2)cc1 (stereo unspecified),0.27 µM,16 µM,0.7 µM,–,–,–
N=C(N)c1ccc(/C=C2/CCCC/C(=C\c3ccc(C(=N)N)cc3)C2=O)cc1,0.013 µM,–,–,–,–,–

# Now from value to compound, other results behind:
Ki [1],Ki [2],Ki [3],Structure (SMILES),ID50 [4],inhibition in vivo at 1 mg/kg/h [5],inhibition in vivo at 5 mg/kg/h [6]
0.018 µM,3.1 µM,0.42 µM,COC(=O)CNC(=O)CC1(C(=O)Nc2ccc(C(=N)N)cc2)CC(c2cccc(C(=N)N)c2)=NO1 (stereo unspecified),–,–,–
0.117 µM,14.1 µM,> 1.2 µM,COC(=O)CC1(C(=O)Nc2cccc(C(=N)N)c2)CC(c2ccc(C(=N)N)cc2)=NO1 (stereo unspecified),–,–,–
0.143 µM,> 21 µM,> 1.2 µM,N=C(N)c1ccc(NC(=O)C2(CC(=O)O)CC(c3cccc(C(=N)N)c3)=NO2)cc1 (stereo unspecified),–,–,–
0.8 µM,11.8 µM,0.23 µM,COC(=O)CC1(C(=O)Nc2cccc(C(=N)N)c2)CC(c2cccc(C(=N)N)c2)=NO1 (stereo unspecified),–,–,–
–,16 µM,0.48 µM,COC(=O)CC1(C(=O)Nc2ccc(C(=N)N)cc2)CC(c2cccc(C(=N)N)c2)=NO1 (stereo unspecified),1.6 mg/kg/h,40%,80%
